Assay results taken from patent US11083196B2, “Microbiocidal oxadiazole derivatives” (SYNGENTA PARTICIPATIONS AG, priority 2016, dated 2021).
Where “and” joins values, the source holds several entries; their conditions need not be identical. Equal entries are not always repeated. Blank lines part the entries; values can stand above or below the molecule they belong to.

What was measured:
Phakopsora pachyrhizi = experiment: Fungicidal activity against Phakopsora pachyrhizi / soybean / leaf disc preventative (Asian soybean rust); type: in vivo; conditions: foliar, 288 h, soybean leaf disks, inoculated one day after application, assessed 12-14 days after application, compared to untreated control
Method: Leaf disks or leaf segments of various plant species are cut from plants grown in a greenhouse. The cut leaf disks or segments are placed in multiwell plates (24-well format) onto water agar. The leaf disks are sprayed with a test solution before (preventative) or after (curative) inoculation. Compounds to be tested are prepared as DMSO solutions (max. 10 mg/ml) which are diluted to the appropriate concentration with 0.025% Tween20 just before spraying. The inoculated leaf disks or segments are incubated under defined conditions (temperature, relative humidity, light, etc.) according to the respective test system. A single evaluation of disease level is carried out 3 to 14 days after inoculation, depending on the pathosystem. Percent disease control relative to the untreated check leaf disks or segments is then calculated. Soybean leaf disks are placed on water agar in multiwell plates (24-well format) and sprayed with the formulated test compound diluted in water. One day after application leaf discs are inoculated by spraying a spore suspension on the lower leaf surface. After an incubation period in a climate cabinet of 24-36 hours in darkness at 20° C. and 75% rh leaf disc are kept at 20° C. with 12 h light/day and 75% rh. The activity of a compound is assessed as percent disease control compared to untreated when an appropriate level of disease damage appears in untreated check leaf disks (12-14 days after application).

[1] = tested on: Puccinia recondita f. sp. tritici; experiment: Fungicidal activity against Puccinia recondita f. sp. tritici / wheat / leaf disc curative (brown rust); type: in vivo; conditions: foliar, 144 h, wheat leaf segments cv. Kanzler, applied 1 day after inoculation, assessed 6-8 days after application, compared to untreated control
Method: Leaf disks or leaf segments of various plant species are cut from plants grown in a greenhouse. The cut leaf disks or segments are placed in multiwell plates (24-well format) onto water agar. The leaf disks are sprayed with a test solution before (preventative) or after (curative) inoculation. Compounds to be tested are prepared as DMSO solutions (max. 10 mg/ml) which are diluted to the appropriate concentration with 0.025% Tween20 just before spraying. The inoculated leaf disks or segments are incubated under defined conditions (temperature, relative humidity, light, etc.) according to the respective test system. A single evaluation of disease level is carried out 3 to 14 days after inoculation, depending on the pathosystem. Percent disease control relative to the untreated check leaf disks or segments is then calculated. Wheat leaf segments cv. Kanzler are placed on agar in multiwell plates (24-well format). The leaf segments are inoculated with a spore suspension of the fungus. Plates are stored in darkness at 19° C. and 75% rh. The formulated test compound diluted in water is applied 1 day after inoculation. The leaf segments are incubated at 19° C. and 75% rh under a light regime of 12 h light/12 h darkness in a climate cabinet and the activity of a compound is assessed as percent disease control compared to untreated when an appropriate level of disease damage appears in untreated check leaf segments (6-8 days after application).

[2] = tested on: Puccinia recondita f. sp. tritici; experiment: Fungicidal activity against Puccinia recondita f. sp. tritici / wheat / leaf disc preventative (brown rust); type: in vivo; conditions: foliar, 168 h, wheat leaf segments cv. Kanzler, inoculated 1 day after application, assessed 7-9 days after application, compared to untreated control
Method: Leaf disks or leaf segments of various plant species are cut from plants grown in a greenhouse. The cut leaf disks or segments are placed in multiwell plates (24-well format) onto water agar. The leaf disks are sprayed with a test solution before (preventative) or after (curative) inoculation. Compounds to be tested are prepared as DMSO solutions (max. 10 mg/ml) which are diluted to the appropriate concentration with 0.025% Tween20 just before spraying. The inoculated leaf disks or segments are incubated under defined conditions (temperature, relative humidity, light, etc.) according to the respective test system. A single evaluation of disease level is carried out 3 to 14 days after inoculation, depending on the pathosystem. Percent disease control relative to the untreated check leaf disks or segments is then calculated. Wheat leaf segments cv. Kanzler are placed on agar in multiwell plates (24-well format) and sprayed with the formulated test compound diluted in water. The leaf disks are inoculated with a spore suspension of the fungus 1 day after application. The inoculated leaf segments are incubated at 19° C. and 75% rh under a light regime of 12 h light/12 h darkness in a climate cabinet and the activity of a compound is assessed as percent disease control compared to untreated when an appropriate level of disease damage appears in untreated check leaf segments (7-9 days after application).

[3] = tested on: Glomerella lagenarium (Colletotrichum lagenarium); experiment: Fungicidal activity against Glomerella lagenarium (Colletotrichum lagenarium), liquid culture / cucumber / preventative (anthracnose); type: cell-based; conditions: Colletotrichum orbiculare, liquid culture (PDB), growth inhibition measured photometrically 3-4 days after application, compared to untreated control
Method: Mycelia fragments or conidia suspensions of a fungus, prepared either freshly from liquid cultures of the fungus or from cryogenic storage, are directly mixed into nutrient broth. DMSO solutions of the test compound (max. 10 mg/ml) is diluted with 0.025% Tween20 by a factor of 50 and 10 μl of this solution is pipetted into a microtiter plate (96-well format). The nutrient broth containing the fungal spores/mycelia fragments is then added to give an end concentration of the tested compound. The test plates are incubated in the dark at 24° C. and 96% relative humidity. The inhibition of fungal growth is determined photometrically after 2 to 7 days, depending on the pathosystem, and percent antifungal activity relative to the untreated check is calculated. Conidia of the fungus from cryogenic storage are directly mixed into nutrient broth (PDB potato dextrose broth). After placing a (DMSO) solution of test compound into a microtiter plate (96-well format), the nutrient broth containing the fungal spores is added. The test plates are incubated at 24° C. and the inhibition of growth is measured photometrically 3-4 days after application.

SMILES: CC1COC(c2ccc(-c3noc(C(F)(F)F)n3)cc2)=N1 (centres unmarked) [Compound A-1, 3-[4-(4-methyl-4,5-dihydrooxazol-2-yl)phenyl]-5-(trifluoromethyl)-1,2,4-oxadiazole]
pest or weed control at 200 ppm (Phakopsora pachyrhizi): ≥ 80% | pest or weed control at 200 ppm [1]: ≥ 80% | pest or weed control at 200 ppm [2]: ≥ 80% | inhibition of growth at 20 ppm [3]: ≥ 80% | melting point: 77 to 80 °C

SMILES: FC(F)(F)c1nc(-c2ccc(C3=NCCO3)cc2)no1 [Compound A-3, 3-[4-(4,5-dihydrooxazol-2-yl)phenyl]-5-(trifluoromethyl)-1,2,4-oxadiazole]
pest or weed control at 200 ppm (Phakopsora pachyrhizi): ≥ 80% | pest or weed control at 200 ppm [1]: ≥ 80% | pest or weed control at 200 ppm [2]: ≥ 80% | melting point: 120 to 125 °C

SMILES: CC1=NOC(c2ccc(-c3noc(C(F)(F)F)n3)cc2)C1 (centres unmarked) [Compound A-4, 3-[4-(3-methyl-4,5-dihydroisoxazol-5-yl)phenyl]-5-(trifluoromethyl)-1,2,4-oxadiazole]
pest or weed control at 200 ppm (Phakopsora pachyrhizi): ≥ 80% | pest or weed control at 200 ppm [1]: ≥ 80% | pest or weed control at 200 ppm [2]: ≥ 80% | inhibition of growth at 20 ppm [3]: ≥ 80% | melting point: 89 to 92 °C

SMILES: CCC1=NOC(c2ccc(-c3noc(C(F)(F)F)n3)cc2)C1 (centres unmarked) [Compound A-5, 3-[4-(3-ethyl-4,5-dihydroisoxazol-5-yl)phenyl]-5-(trifluoromethyl)-1,2,4-oxadiazole]
pest or weed control at 200 ppm (Phakopsora pachyrhizi): ≥ 80% | pest or weed control at 200 ppm [1]: ≥ 80% | pest or weed control at 200 ppm [2]: ≥ 80% | inhibition of growth at 20 ppm [3]: ≥ 80% | melting point: 75 to 80 °C

SMILES: CCCC1=NOC(c2ccc(-c3noc(C(F)(F)F)n3)cc2)C1 (centres unmarked) [Compound A-6, 3-[4-(3-propyl-4,5-dihydroisoxazol-5-yl)phenyl]-5-(trifluoromethyl)-1,2,4-oxadiazole]
pest or weed control at 200 ppm (Phakopsora pachyrhizi): ≥ 80% | pest or weed control at 200 ppm [1]: ≥ 80% | pest or weed control at 200 ppm [2]: ≥ 80% | inhibition of growth at 20 ppm [3]: ≥ 80% | melting point: 79 to 83 °C

SMILES: CC1(C)COC(c2ccc(-c3noc(C(F)(F)F)n3)cc2)NC1=O (centres unmarked) [Compound A-10, 5,5-dimethyl-2-[4-[5-(trifluoromethyl)-1,2,4-oxadiazol-3-yl]phenyl]-1,3-oxazinan-4-one]
pest or weed control at 200 ppm (Phakopsora pachyrhizi): ≥ 80% | pest or weed control at 200 ppm [2]: ≥ 80% | inhibition of growth at 20 ppm [3]: ≥ 80% | melting point: 187.3 to 189 °C

SMILES: FC(F)(F)c1nc(-c2ccc(C3CC(C4CC4)=NO3)cc2)no1 (centres unmarked) [Compound A-12, 3-[4-(3-cyclopropyl-4,5-dihydroisoxazol-5-yl)phenyl]-5-(trifluoromethyl)-1,2,4-oxadiazole]
pest or weed control at 200 ppm (Phakopsora pachyrhizi): ≥ 80% | pest or weed control at 200 ppm [2]: ≥ 80% | inhibition of growth at 20 ppm [3]: ≥ 80% | melting point: 109 to 112 °C

SMILES: COCC(=O)NC1CSC(c2ccc(-c3noc(C(F)(F)F)n3)cc2)=N1 (centres unmarked) [Compound A-28, 2-methoxy-N-(2-[4-[5-(trifluoromethyl)-1,2,4-oxadiazol-3-yl]phenyl]-4,5-dihydrothiazol-4-yl]acetamide]
pest or weed control at 200 ppm (Phakopsora pachyrhizi): ≥ 80% | pest or weed control at 200 ppm [1]: ≥ 80% | pest or weed control at 200 ppm [2]: ≥ 80% | inhibition of growth at 20 ppm [3]: ≥ 80%

SMILES: CC(C)(C)[S+]([O-])NC1CSC(c2ccc(-c3noc(C(F)(F)F)n3)cc2)=N1 (centres unmarked) [Compound A-29, 2-methyl-N-[2-[4-[5-(trifluoromethyl)-1,2,4-oxadiazol-3-yl]phenyl]-4,5-dihydrothiazol-4-yl]propane-2-sulfinamide]
pest or weed control at 200 ppm (Phakopsora pachyrhizi): ≥ 80% | pest or weed control at 200 ppm [1]: ≥ 80% | pest or weed control at 200 ppm [2]: ≥ 80% | inhibition of growth at 20 ppm [3]: ≥ 80%

SMILES: O=C(C1CC1)N1CCCC1c1ccc(-c2noc(C(F)(F)F)n2)cc1 (centres unmarked) [Compound A-36, cyclopropyl-[2-[4-[5-(trifluoromethyl)-1,2,4-oxadiazol-3-yl]phenyl]pyrrolidin-1-yl]methanone]
pest or weed control at 200 ppm (Phakopsora pachyrhizi): ≥ 80% | pest or weed control at 200 ppm [1]: ≥ 80% | inhibition of growth at 20 ppm [3]: ≥ 80%

SMILES: CCOCc1cc(-c2ccc(-c3noc(C(F)(F)F)n3)cc2)no1 [Compound C-5, 3-[4-[5-(ethoxymethyl)isoxazol-3-yl]phenyl]-5-(trifluoromethyl)-1,2,4-oxadiazole]
pest or weed control at 200 ppm (Phakopsora pachyrhizi): ≥ 80%

Further lines, with some results ahead:

melting point: 69 to 71 °C
SMILES: CC(=O)OCc1cnc(-c2ccc(-c3noc(C(F)(F)F)n3)cc2)o1 [Compound C-1, [2-[4-[5-(trifluoromethyl)-1,2,4-oxadiazol-3-yl]phenyl]oxazol-5-yl]methyl acetate]
pest or weed control at 200 ppm (Phakopsora pachyrhizi): ≥ 80% | pest or weed control at 200 ppm [1]: ≥ 80% | pest or weed control at 200 ppm [2]: ≥ 80%

melting point: 110 to 111 °C and 109 to 111 °C
SMILES: Cc1cnc(-c2ccc(-c3noc(C(F)(F)F)n3)cc2)o1 [Compound C-2, 3-[4-(5-methyloxazol-2-yl)phenyl]-5-(trifluoromethyl)-1,2,4-oxadiazole]
pest or weed control at 200 ppm (Phakopsora pachyrhizi): ≥ 80% | pest or weed control at 200 ppm [1]: ≥ 80% | pest or weed control at 200 ppm [2]: ≥ 80%

melting point: 106 to 107 °C
SMILES: FC(F)(F)c1nc(-c2ccc(-c3nc(CCl)co3)cc2)no1 [Compound C-4, 3-[4-[4-(chloromethyl)oxazol-2-yl]phenyl]-5-(trifluoromethyl)-1,2,4-oxadiazole]
pest or weed control at 200 ppm (Phakopsora pachyrhizi): ≥ 80% | inhibition of growth at 20 ppm [3]: ≥ 80%

melting point: 75 to 80 °C
SMILES: Fc1ccc(-c2ccc(-c3noc(C(F)(F)F)n3)cc2)cn1 [Compound D-6, 3-[4-(6-fluoro-3-pyridyl)phenyl]-5-(trifluoromethyl)-1,2,4-oxadiazole]
pest or weed control at 200 ppm [1]: ≥ 80% | pest or weed control at 200 ppm [2]: ≥ 80% | inhibition of growth at 20 ppm [3]: ≥ 80%

melting point: 105 to 110 °C
SMILES: Fc1cc(-c2ccc(-c3noc(C(F)(F)F)n3)cc2)ccn1 [Compound D-7, 3-[4-(2-fluoro-4-pyridyl)phenyl]-5-(trifluoromethyl)-1,2,4-oxadiazole]
pest or weed control at 200 ppm [1]: ≥ 80% | pest or weed control at 200 ppm [2]: ≥ 80% | inhibition of growth at 20 ppm [3]: ≥ 80%

melting point: 155 to 160 °C
SMILES: Nc1ccc(-c2ccc(-c3noc(C(F)(F)F)n3)cc2)cn1 [Compound D-12, 5-[4-[5-(trifluoromethyl)-1,2,4-oxadiazol-3-yl]phenyl]pyridin-2-amine]
pest or weed control at 200 ppm (Phakopsora pachyrhizi): ≥ 80% | pest or weed control at 200 ppm [2]: ≥ 80% | inhibition of growth at 20 ppm [3]: ≥ 80%

melting point: 109 to 111 °C
SMILES: Cc1cc(C)n(-c2ccc(-c3noc(C(F)(F)F)n3)cc2)n1 [Compound E-1, 3-[4-(3,5-dimethylpyrazol-1-yl)phenyl]-5-(trifluoromethyl)-1,2,4-oxadiazole]
pest or weed control at 200 ppm [1]: ≥ 80% | pest or weed control at 200 ppm [2]: ≥ 80% | inhibition of growth at 20 ppm [3]: ≥ 80%
